Measured values published in paper PMC6407913, “DREADD Agonist 21 Is an Effective Agonist for Muscarinic-Based DREADDs in Vitro and in Vivo” (ACS Pharmacology & Translational Science, 2018).
Values joined by “and” are separate entries in the source; they are usually repeats but may differ in a detail not shown here. Equal entries are not always repeated. Where two headings read alike, the source gives them in different places.

Key:
[1] = target: T1, hM1Dq (Homo sapiens, UniProt P11229, A196G/Y106C); assay: IP-One accumulation assay
T1 sequence (P11229 1-460 Y106C/A196G): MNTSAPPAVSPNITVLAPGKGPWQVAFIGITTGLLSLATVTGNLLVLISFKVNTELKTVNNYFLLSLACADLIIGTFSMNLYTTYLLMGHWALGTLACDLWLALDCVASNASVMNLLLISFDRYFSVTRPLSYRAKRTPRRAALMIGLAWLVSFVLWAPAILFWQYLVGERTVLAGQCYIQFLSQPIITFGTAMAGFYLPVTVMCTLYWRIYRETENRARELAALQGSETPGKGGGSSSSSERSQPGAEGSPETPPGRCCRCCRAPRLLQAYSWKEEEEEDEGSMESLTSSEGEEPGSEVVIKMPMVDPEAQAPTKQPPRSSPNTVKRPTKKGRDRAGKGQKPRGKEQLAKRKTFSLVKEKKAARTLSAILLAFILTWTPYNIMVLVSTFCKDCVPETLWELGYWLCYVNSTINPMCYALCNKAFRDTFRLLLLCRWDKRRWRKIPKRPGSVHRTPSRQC

[2] = target: dopamine D1 receptors (Homo sapiens, UniProt P21728); assay: cAMP signaling concentration-response, agonist mode; format: cell-based
Method: HEK293 T cells were used for transient transfections and Gi mediated cAMP production assays. Assays were performed according to published procedures (PMID25895059, PRESTO-Tango paper). More detailed assay protocols are available at NIMH PDSP Web site (http://pdspdb.unc.edu/pdspWeb/?site=assays).
HEK293T cells in 10 cm plates were transfected with 4 μg of Glosensor and 4 μg of DNA encoding the human dopamine D1 receptor. The next day, cells were harvested and plated in polylysine-coated 384-well plates (Greiner) at a density of 20 000 cells/well in DMEM containing 1% dFBS. The next day, media was aspirated from each well and replaced with 20 μL of assay buffer containing 4 mM luciferin. Then, 10 μL of drugs were added 30 min later, and plates were read after 15 min.

[3] = target: T2, hM4Di (Homo sapiens, UniProt P08173, A203G/Y113C); assay: whole-cell [3H]NMS competition binding
T2 sequence (P08173 1-479 Y113C/A203G): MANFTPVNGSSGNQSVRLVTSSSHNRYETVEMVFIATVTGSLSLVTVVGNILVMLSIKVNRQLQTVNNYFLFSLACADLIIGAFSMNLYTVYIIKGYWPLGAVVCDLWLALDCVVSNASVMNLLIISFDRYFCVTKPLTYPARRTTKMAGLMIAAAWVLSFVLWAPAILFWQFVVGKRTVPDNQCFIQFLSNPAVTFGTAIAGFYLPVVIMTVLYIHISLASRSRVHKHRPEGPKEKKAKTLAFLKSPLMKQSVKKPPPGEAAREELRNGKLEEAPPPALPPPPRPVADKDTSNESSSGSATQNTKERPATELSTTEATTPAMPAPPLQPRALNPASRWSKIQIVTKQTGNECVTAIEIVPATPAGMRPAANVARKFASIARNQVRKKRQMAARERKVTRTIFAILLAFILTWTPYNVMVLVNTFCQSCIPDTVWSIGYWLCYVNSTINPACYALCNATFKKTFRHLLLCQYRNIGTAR

[4] = target: D2 (Homo sapiens, UniProt P14416); assay: Gi1 BRET dissociation assay, antagonist mode; format: cell-based; settings: human D2, HEK293T cells, vs quinpirole
Sequence of D2 (P14416 whole entry): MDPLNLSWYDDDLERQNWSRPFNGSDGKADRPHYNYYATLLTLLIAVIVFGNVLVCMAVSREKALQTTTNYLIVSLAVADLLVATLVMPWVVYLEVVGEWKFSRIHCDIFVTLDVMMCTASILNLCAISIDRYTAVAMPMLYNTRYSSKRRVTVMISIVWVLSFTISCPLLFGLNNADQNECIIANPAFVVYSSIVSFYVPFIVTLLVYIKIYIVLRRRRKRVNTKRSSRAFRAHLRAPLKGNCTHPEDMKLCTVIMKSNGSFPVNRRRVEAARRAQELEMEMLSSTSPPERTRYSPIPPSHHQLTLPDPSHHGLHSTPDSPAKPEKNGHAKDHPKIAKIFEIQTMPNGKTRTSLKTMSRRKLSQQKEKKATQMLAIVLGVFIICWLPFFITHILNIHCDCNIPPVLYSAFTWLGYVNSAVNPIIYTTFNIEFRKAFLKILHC
Method: (§1) Separate pcDNA plasmids containing the sequence for Gβ1, Gγ2-GFP^2, Gi1-Rluc8, and either human dopamine D2 receptor or histamine H4 receptor were cotransfected into HEK293T cells (in 10 cm plates) at 1.5 μg/construct using Transit-2020 (Mirus) at a ratio of 3 μL/μg Transit/DNA. The next day, cells were harvested and plated in DMEM containing 1% dFBS in polylysine-coated 96-well plates (Greiner) at 50 000 cells per well. Sixteen hours later, media was aspirated from each well, and cells were subsequently rinsed with 60 μL of assay buffer (20 mM HEPES, 1× Hanks Buffered Saline Solution, pH 7.4). Before drug treatment, 60 μL of fresh assay buffer was added to each well followed by 10 μL of 50 uM Coelenterazine 400a (Prolume). Luminescence and fluorescence were measured using an LB940 Mithras (Berthold technologies), and BRET was computed as the ratio of GFP^2 fluorescence to luciferase signal.
(§2) In the absence of C21 ([B] = 0), this equation becomes the standard four-parameter logistic equation for fitting agonist concentration–response data.

[5] = target: T3, human H4 histamine receptors (Homo sapiens, UniProt Q9H3N8); assay: Gi1 BRET dissociation assay, antagonist mode; format: cell-based; settings: human H4, HEK293T cells, vs histamine
T3 construct: expressed in transfected cells; host or cells: HEK293T, transient (pcDNA plasmids)
T3 sequence (Q9H3N8 whole entry): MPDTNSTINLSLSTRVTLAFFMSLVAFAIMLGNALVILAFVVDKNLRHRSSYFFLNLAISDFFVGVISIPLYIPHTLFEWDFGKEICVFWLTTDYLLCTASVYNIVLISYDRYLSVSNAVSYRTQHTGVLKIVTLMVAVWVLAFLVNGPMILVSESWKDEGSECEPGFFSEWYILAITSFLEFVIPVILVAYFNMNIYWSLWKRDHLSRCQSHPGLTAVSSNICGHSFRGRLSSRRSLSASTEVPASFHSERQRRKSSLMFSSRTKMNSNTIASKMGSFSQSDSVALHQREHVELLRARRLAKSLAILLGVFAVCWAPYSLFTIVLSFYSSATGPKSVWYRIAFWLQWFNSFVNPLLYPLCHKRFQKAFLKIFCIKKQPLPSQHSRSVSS
Method: as §1, §2

[6] = target: T4, Alpha2C (Homo sapiens, UniProt P18825); assay: NIMH PDSP radioligand binding, membranes
T4 construct: NIMH PDSP
T4 sequence (P18825 whole entry): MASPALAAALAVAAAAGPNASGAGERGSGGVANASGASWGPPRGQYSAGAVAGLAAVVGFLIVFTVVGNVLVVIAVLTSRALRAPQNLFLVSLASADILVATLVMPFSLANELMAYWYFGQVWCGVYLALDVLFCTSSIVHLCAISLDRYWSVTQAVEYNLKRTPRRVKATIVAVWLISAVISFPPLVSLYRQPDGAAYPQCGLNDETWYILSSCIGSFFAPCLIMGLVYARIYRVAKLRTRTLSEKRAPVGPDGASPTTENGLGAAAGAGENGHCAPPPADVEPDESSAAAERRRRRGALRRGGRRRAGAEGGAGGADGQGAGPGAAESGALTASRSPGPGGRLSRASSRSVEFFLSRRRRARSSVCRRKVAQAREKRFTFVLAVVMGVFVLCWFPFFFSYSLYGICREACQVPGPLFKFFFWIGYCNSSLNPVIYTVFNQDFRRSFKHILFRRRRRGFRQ
Method: (§3) Radioligand binding assays with membrane preparations to determine binding affinity were carried out as outlined before[540] and by the National Institute of Mental Health’s Psychoactive Drug Screening Program (NIMH PDSP) (https://pdsp.unc.edu/), Contract # HHSN-271–2013–00017-C. The NIMH PDSP is Directed by B.L.R. at the University of North Carolina at Chapel Hill, Chapel Hill, NC, and Project Officer Jamie Driscoll at NIMH, Bethesda, MD.

[7] = target: 5-HT2A (Homo sapiens, UniProt P28223); assay: NIMH PDSP radioligand binding, membranes
Sequence of 5-HT2A (P28223 whole entry, species assumed): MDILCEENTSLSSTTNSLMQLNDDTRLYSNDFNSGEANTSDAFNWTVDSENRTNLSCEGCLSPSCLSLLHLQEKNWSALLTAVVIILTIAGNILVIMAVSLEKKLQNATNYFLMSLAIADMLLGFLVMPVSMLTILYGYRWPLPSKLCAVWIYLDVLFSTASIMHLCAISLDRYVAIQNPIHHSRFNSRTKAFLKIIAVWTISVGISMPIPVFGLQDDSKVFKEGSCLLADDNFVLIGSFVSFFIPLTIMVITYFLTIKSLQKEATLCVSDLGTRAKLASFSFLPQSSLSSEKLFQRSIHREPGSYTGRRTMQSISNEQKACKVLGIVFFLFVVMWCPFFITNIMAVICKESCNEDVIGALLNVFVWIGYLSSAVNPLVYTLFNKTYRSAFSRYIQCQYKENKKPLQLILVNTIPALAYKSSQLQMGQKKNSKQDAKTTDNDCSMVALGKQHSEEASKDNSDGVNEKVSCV
Method: as §3

[8] = target: H2 (Homo sapiens, UniProt P25021); assay: NIMH PDSP radioligand binding, membranes
Sequence of H2 (P25021 whole entry): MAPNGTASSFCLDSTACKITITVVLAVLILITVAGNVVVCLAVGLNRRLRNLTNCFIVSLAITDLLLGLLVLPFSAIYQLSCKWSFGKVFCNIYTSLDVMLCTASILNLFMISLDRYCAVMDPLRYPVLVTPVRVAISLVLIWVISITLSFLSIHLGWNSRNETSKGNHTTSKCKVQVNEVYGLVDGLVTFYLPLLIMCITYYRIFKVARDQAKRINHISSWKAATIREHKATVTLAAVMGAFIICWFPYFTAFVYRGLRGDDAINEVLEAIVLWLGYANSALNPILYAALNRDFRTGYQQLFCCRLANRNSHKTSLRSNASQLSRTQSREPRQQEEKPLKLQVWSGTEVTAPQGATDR
Method: as §3

[9] = target: Beta2 (Homo sapiens, UniProt P07550); assay: NIMH PDSP radioligand binding, membranes
Sequence of Beta2 (P07550 whole entry): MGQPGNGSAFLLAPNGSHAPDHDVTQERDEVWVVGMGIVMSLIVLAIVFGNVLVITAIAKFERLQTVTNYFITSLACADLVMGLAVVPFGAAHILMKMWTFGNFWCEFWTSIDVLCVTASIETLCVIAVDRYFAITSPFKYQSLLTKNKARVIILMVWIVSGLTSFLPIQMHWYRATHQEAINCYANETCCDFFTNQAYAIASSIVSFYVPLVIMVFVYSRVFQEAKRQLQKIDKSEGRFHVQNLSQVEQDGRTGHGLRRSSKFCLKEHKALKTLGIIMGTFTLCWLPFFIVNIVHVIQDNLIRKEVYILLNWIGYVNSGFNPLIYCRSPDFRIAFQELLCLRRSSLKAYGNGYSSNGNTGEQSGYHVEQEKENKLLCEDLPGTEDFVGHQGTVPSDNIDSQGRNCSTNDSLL
Method: as §3

[10] = target: T5, 5-HT1A (Homo sapiens, UniProt P08908); assay: NIMH PDSP radioligand binding, membranes
T5 construct: NIMH PDSP
T5 sequence (P08908 whole entry, species assumed): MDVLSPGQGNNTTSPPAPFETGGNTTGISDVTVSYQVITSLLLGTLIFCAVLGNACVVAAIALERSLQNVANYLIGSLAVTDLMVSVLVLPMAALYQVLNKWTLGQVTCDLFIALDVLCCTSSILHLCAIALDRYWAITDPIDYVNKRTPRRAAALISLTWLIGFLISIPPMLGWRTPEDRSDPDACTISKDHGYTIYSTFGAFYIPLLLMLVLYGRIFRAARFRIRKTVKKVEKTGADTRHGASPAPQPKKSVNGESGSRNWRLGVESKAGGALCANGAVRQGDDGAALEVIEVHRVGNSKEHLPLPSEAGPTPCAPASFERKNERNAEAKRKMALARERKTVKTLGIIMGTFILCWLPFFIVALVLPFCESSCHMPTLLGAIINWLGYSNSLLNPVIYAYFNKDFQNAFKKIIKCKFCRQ
Method: as §3

[11] = target: T6, Alpha2B (Homo sapiens, UniProt P18089); assay: NIMH PDSP radioligand binding, membranes
T6 construct: NIMH PDSP
T6 sequence (P18089 whole entry): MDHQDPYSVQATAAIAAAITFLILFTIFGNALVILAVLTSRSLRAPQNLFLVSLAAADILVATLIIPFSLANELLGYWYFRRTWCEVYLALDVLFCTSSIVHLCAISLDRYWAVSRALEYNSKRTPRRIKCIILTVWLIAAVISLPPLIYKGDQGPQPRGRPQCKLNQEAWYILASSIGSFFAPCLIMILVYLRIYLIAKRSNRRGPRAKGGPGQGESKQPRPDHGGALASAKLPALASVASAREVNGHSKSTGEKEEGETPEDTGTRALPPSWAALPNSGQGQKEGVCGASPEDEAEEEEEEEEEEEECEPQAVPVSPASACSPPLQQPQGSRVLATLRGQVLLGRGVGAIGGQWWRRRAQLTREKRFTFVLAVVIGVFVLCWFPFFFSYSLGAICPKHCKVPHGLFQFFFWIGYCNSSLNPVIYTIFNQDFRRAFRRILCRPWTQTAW
Method: as §3

[12] = target: M1 (Homo sapiens, UniProt P11229); assay: NIMH PDSP radioligand binding, membranes
Sequence of M1 (P11229 whole entry): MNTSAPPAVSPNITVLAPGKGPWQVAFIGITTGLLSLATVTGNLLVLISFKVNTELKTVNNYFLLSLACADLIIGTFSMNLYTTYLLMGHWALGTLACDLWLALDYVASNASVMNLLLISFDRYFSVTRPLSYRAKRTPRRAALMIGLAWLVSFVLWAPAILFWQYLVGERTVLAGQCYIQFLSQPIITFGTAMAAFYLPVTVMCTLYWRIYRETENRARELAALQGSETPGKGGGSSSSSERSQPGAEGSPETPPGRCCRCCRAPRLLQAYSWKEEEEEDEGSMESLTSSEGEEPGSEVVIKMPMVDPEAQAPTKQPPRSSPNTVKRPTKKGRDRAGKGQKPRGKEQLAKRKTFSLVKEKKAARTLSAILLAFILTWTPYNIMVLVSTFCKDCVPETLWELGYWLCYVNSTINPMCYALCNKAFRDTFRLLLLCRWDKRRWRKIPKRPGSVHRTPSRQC
Method: as §3

[13] = target: T7, Beta3 (Homo sapiens, UniProt P13945); assay: NIMH PDSP radioligand binding, membranes
T7 construct: NIMH PDSP
T7 sequence (P13945 whole entry): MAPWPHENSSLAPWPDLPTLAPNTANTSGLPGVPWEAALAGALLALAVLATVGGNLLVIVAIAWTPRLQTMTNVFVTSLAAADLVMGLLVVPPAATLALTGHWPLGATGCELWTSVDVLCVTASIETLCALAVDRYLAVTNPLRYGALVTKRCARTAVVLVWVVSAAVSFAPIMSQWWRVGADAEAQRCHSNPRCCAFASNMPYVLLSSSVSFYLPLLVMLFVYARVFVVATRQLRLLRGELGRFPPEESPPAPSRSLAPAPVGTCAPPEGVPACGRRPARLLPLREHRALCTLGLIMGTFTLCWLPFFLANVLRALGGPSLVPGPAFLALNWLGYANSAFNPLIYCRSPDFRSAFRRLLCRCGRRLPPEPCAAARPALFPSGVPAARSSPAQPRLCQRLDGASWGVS
Method: as §3

[14] = target: 5-HT3 (Homo sapiens, UniProt P46098); assay: NIMH PDSP radioligand binding, membranes
Sequence of 5-HT3 (P46098 24-478, species assumed): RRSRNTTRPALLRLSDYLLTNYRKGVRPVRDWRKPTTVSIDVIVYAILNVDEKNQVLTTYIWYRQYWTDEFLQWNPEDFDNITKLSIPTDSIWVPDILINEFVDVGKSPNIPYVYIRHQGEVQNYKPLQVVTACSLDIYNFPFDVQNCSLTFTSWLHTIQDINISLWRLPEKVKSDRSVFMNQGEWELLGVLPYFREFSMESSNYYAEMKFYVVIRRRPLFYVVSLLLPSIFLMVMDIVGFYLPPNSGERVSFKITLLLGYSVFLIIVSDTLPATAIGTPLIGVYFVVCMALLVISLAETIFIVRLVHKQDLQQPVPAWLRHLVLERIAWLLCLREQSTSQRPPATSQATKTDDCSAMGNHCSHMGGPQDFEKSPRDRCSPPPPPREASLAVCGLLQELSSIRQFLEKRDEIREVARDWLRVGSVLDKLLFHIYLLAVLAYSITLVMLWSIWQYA
Method: as §3

[15] = read-out: Ki #1-#5 (individual assays)

SMILES: c1ccc2c(c1)N=C(N1CCNCC1)c1ccccc1N2 [C21, 11-(1-piperazinyl)-5H-dibenzo[b,e][1,4]diazepine]
- EC50 [1]: 1.23 nM
- agonist activity, follow-up concentration-response (cAMP) [2]: minimal activity
- Ki [3]: 178 nM
- higher binding affinity at hM4Di than at wildtype hM4 ([3]; hM4Di vs hM4): > 10 fold
- antagonist activity, Gi-dissociation assay [4]: antagonism
- antagonist activity, Gi-dissociation assay [5]: no antagonism was observed
- Ki ([6]; read-out: Ki): 1690 nM
- Ki [6, 15]: 1860 nM and 936 nM and 2770 nM
- Ki ([7]; read-out: Ki): 44.3 nM
- Ki [7, 15]: 58.9 nM and 51 nM
- Ki ([7]; read-out: log Ki (individual assays) (converted)): 28.8 nM
- Ki ([8]; read-out: Ki): 289 nM
- Ki [8, 15]: 257 nM and 511 nM and 184 nM
- Ki ([9]; read-out: Ki): > 10000 nM
- Ki [9, 15]: > 10000 nM
- Ki ([10]; read-out: Ki): 80.9 nM
- Ki [10, 15]: 64.5 nM and 144 nM and 57 nM
- Ki ([11]; read-out: Ki): 474 nM
- Ki [11, 15]: 1520 nM and 157 nM and 247 nM and 857 nM
- Ki ([12]; read-out: Ki): 548 nM
- Ki [12, 15]: 693 nM and 303 nM and 785 nM
- Ki ([13]; read-out: Ki): > 10000 nM
- Ki [13, 15]: > 10000 nM
- Ki ([14]; read-out: Ki): 360 nM
- Ki [14, 15]: 858 nM and 321 nM and 169 nM
